Reference: ChEMBL document CHEMBL1817632, “Synthesis and cytotoxic activity of the heptaphylline and 7-methoxyheptaphylline series” (Eur J Med Chem, 2011)
Calls of active or inactive are those of the source. The rule behind the calls is not given here.

What was measured:
[1] = system: NCI-H187; assay: Cytotoxicity against human NCI-H187 cells at >200 uM after 5 days by resazurin microplate assay; type: functional, cell-based
[2] = system: KB; assay: Cytotoxicity against human KB cells at >200 uM after 3 days by resazurin microplate assay; type: functional, cell-based
[3] = system: Vero; assay: Cytotoxicity against african green monkey Vero cells expressing green fluorescent protein at > 200 uM after 4 days by fluorescence analysis; type: cell-based; settings: chlorocebus sabaeus, 96 h
[4] = system: NCI-H187; assay: Cytotoxicity against human NCI-H187 cells after 5 days by resazurin microplate assay; type: functional, cell-based; settings: NCI-H187, 120 h
[5] = system: KB; assay: Cytotoxicity against human KB cells after 3 days by resazurin microplate assay; type: functional, cell-based; settings: 72 h
[6] = system: Vero; assay: Cytotoxicity against african green monkey Vero cells expressing green fluorescent protein after 4 days by fluorescence analysis; type: cell-based; settings: chlorocebus sabaeus, 96 h
[7] = system: NCI-H187; assay: Ratio of Ellipticine IC50 to compound IC50 for human NCI-H187 cells; type: functional
[8] = system: KB; assay: Ratio of Ellipticine IC50 to compound IC50 for human KB cells; type: functional

SMILES	Activity [1]	Activity [2]	Activity [3]	IC50 [4] [µM]	IC50 [5] [µM]	IC50 [6] [µM]	Ratio IC50 [7]	Ratio IC50 [8]
COc1cc2[nH]c3c4c(c(C=O)cc3c2cc1Br)OC(C)(C)C(Br)C4 (stereo not given)	inactive	inactive	Non-toxic					
CC1(C)OC1Cc1c(O)c(C=O)cc2c1[nH]c1ccccc12 (stereo not given)				5.31	54.8	74.5		
CC(C)=CCc1c(O)c(/C=N\O)cc2c1[nH]c1ccccc12 [HEPTAPHYLLINE OXIME]				0.02	0.17	66	138	10
COc1ccc2c(c1)[nH]c1c(CC=C(C)C)c(OC)c(C=O)cc12				19.5	11	61.1		
COc1c(C=O)cc2c3ccccc3n(C)c2c1CC=C(C)C				62.5	147	149		
CC(C)(O)C(Br)Cc1c(O)c(C=O)cc2c1[nH]c1ccccc12 (stereo not given)			Non-toxic	30.2	17.4			
COc1ccc2c(c1)[nH]c1c3c(c(C=O)cc12)OC(C(C)(C)O)C3 (stereo not given)			Non-toxic	12.9	71.2			
CC(C)=CCc1c(O)c(C=O)cc2c3ccccc3n(C)c12				44.2	166	34.6		
COc1ccc2c(c1)[nH]c1c(CC3OC3(C)C)c(O)c(C=O)cc12 (stereo not given)				20.1	9.22	75.3		
CC1(C)CCc2c(c(C=O)cc3c2[nH]c2ccccc23)O1			Non-toxic	65.2	26.4			
COc1cc2[nH]c3c(CC(Br)C(C)(C)O)c(O)c(C=O)cc3c2cc1Br (stereo not given)				0.66	36.3	12.5	4	
COc1ccc2c(c1)[nH]c1c(CC=C(C)C)c(O)c(C=O)cc12			Non-toxic					
Cc1c2ccncc2c(C)c2c1[nH]c1ccccc12 [ELLIPTECINE]				2.77		3.82		
COc1c(C=O)cc2c([nH]c3ccccc32)c1CC=C(C)C				4.49	12.8	170		
CC1(C)Oc2c(C=O)cc3c([nH]c4ccccc43)c2CC1O (stereo not given)			Non-toxic	6.06	5.99			
COc1ccc2c(c1)[nH]c1c(CC=C(C)C)c(O)c(/C=N\O)cc12			Non-toxic	3.67	18.2			
COc1ccc2c(c1)[nH]c1c3c(c(C=O)cc12)OC(C)(C)CC3	inactive	inactive	Non-toxic					
COc1ccc2c3cc(C=O)c(OC)c(CC=C(C)C)c3n(C)c2c1				4.83	69.8	45.9		
COc1ccc2c(c1)[nH]c1c3c(c(C=O)cc12)OC(C)(C)C(O)C3 (stereo not given)			Non-toxic	3.04	120			
CC1(C)Oc2c(C=O)cc3c([nH]c4ccccc43)c2CC1Br (stereo not given)			Non-toxic	77.4	6			
